Results taken from PubChem BioAssay AID2060892 (Molecular Pharmacology Branch, DTP, NCI, 2025).

System: HOP-62 complex spheroids with HUVEC/MSC, viability
Assay: Anticancer human tumor HOP-62 cell line growth inhibition [RAS];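 also: spheroids exposed to agents for seven days before readout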;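 as to viability, T/C: 100% = DMSO vehicle control viability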
Conditions: for IC50: curve of first compound; for viability, T/C: stronger effect = lower value
In short: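 Multi-cell-type spheroids: tumor cells plus HUVEC endothelial cells and mesenchymal stem cells. RAS-pathway inhibitors were combined with targeted agents, each dosed in half-log steps down from clinical Cmax, or from 10 microM when Cmax was unknown.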

[1] = second compound 0.0316 µM, first compound 0.0316 µM
[2] = second compound 0.0316 µM, first compound 0.1 µM
[3] = second compound 0.0316 µM, first compound 0.316 µM
[4] = second compound 0.0316 µM, first compound 1 µM
[5] = second compound 0.1 µM, first compound 0.0316 µM
[6] = second compound 0.1 µM, first compound 0.1 µM
[7] = second compound 0.1 µM, first compound 0.316 µM
[8] = second compound 0.1 µM, first compound 1 µM
[9] = second compound 0.316 µM, first compound 0.0316 µM
[10] = second compound 0.316 µM, first compound 0.1 µM
[11] = second compound 0.316 µM, first compound 0.316 µM
[12] = second compound 0.316 µM, first compound 1 µM
[13] = second compound 1 µM, first compound 0.0316 µM
[14] = second compound 1 µM, first compound 0.1 µM
[15] = second compound 1 µM, first compound 0.316 µM
[16] = second compound 1 µM, first compound 1 µM
[17] = second compound 3.16 µM, first compound 0.0316 µM
[18] = second compound 3.16 µM, first compound 0.1 µM
[19] = second compound 3.16 µM, first compound 0.316 µM
[20] = second compound 3.16 µM, first compound 1 µM
[21] = second compound 10 µM, first compound 0.0316 µM
[22] = second compound 10 µM, first compound 0.1 µM
[23] = second compound 10 µM, first compound 0.316 µM
[24] = second compound 10 µM, first compound 1 µM

C=CC(=O)N1CCN(c2nc(OCC3CCCN3C)nc3c(F)c(-c4nc(N)cc(C)c4C(F)(F)F)c(Cl)cc23)C(C)C1 (centres undefined) + C#Cc1c(F)ccc2cc(O)cc(-c3ncc4c(N5CC6CCC(C5)N6)nc(OCC56CCCN5CC(F)C6)nc4c3F)c12
IC50 (second compound 0.0316 µM): > 1000 nM
IC50 (second compound 0.1 µM): > 1000 nM
IC50 (second compound 0.316 µM): > 1000 nM
IC50 (second compound 1 µM): > 1000 nM
IC50 (second compound 3.16 µM): > 1000 nM
IC50 (second compound 10 µM): < 3.16 nM
viability, T/C (second compound 0.0316 µM, first compound 0.00316 µM): 79.5%
viability, T/C (second compound 0.0316 µM, first compound 0.01 µM): 71.2%
viability, T/C [1]: 65.5%
viability, T/C [2]: 68.2%
viability, T/C [3]: 70.6%
viability, T/C [4]: 62.1%
viability, T/C (second compound 0.1 µM, first compound 0.00316 µM): 86.7%
viability, T/C (second compound 0.1 µM, first compound 0.01 µM): 69.3%
viability, T/C [5]: 63.2%
viability, T/C [6]: 64.7%
viability, T/C [7]: 69.1%
viability, T/C [8]: 63%
viability, T/C (second compound 0.316 µM, first compound 0.00316 µM): 81.7%
viability, T/C (second compound 0.316 µM, first compound 0.01 µM): 68.9%
viability, T/C [9]: 62.9%
viability, T/C [10]: 58.5%
viability, T/C [11]: 61.1%
viability, T/C [12]: 61.8%
viability, T/C (second compound 1 µM, first compound 0.00316 µM): 90%
viability, T/C (second compound 1 µM, first compound 0.01 µM): 73.5%
viability, T/C [13]: 63.1%
viability, T/C [14]: 57.9%
viability, T/C [15]: 59.2%
viability, T/C [16]: 58.4%
viability, T/C (second compound 3.16 µM, first compound 0.00316 µM): 72.7%
viability, T/C (second compound 3.16 µM, first compound 0.01 µM): 70.1%
viability, T/C [17]: 57.4%
viability, T/C [18]: 61.1%
viability, T/C [19]: 53.9%
viability, T/C [20]: 50%
viability, T/C (second compound 10 µM, first compound 0.00316 µM): 48%
viability, T/C (second compound 10 µM, first compound 0.01 µM): 49.5%
viability, T/C [21]: 43.4%
viability, T/C [22]: 48.4%
viability, T/C [23]: 43.7%
viability, T/C [24]: 37%

CC(=O)OC12COC1CC(O)C1(C)C(=O)C(O)C3=C(C)C(OC(=O)C(O)C(NC(=O)OC(C)(C)C)c4ccccc4)CC(O)(C(OC(=O)c4ccccc4)C21)C3(C)C (centres undefined) + C#Cc1c(F)ccc2cc(O)cc(-c3ncc4c(N5CC6CCC(C5)N6)nc(OCC56CCCN5CC(F)C6)nc4c3F)c12
IC50 (second compound 0.0316 µM): < 31.6 nM
IC50 (second compound 0.1 µM): < 31.6 nM
IC50 (second compound 0.316 µM): < 31.6 nM
IC50 (second compound 1 µM): < 31.6 nM
IC50 (second compound 3.16 µM): < 31.6 nM
IC50 (second compound 10 µM): < 31.6 nM
viability, T/C [1]: 11.7%
viability, T/C [2]: 13.2%
viability, T/C [3]: 14.1%
viability, T/C [4]: 19.5%
viability, T/C (second compound 0.0316 µM, first compound 3.16 µM): 19.5%
viability, T/C (second compound 0.0316 µM, first compound 10 µM): 26.5%
viability, T/C [5]: 14.5%
viability, T/C [6]: 13.9%
viability, T/C [7]: 17.6%
viability, T/C [8]: 17.7%
viability, T/C (second compound 0.1 µM, first compound 3.16 µM): 18.7%
viability, T/C (second compound 0.1 µM, first compound 10 µM): 27.1%
viability, T/C [9]: 12%
viability, T/C [10]: 12.8%
viability, T/C [11]: 16.6%
viability, T/C [12]: 13.6%
viability, T/C (second compound 0.316 µM, first compound 3.16 µM): 18.4%
viability, T/C (second compound 0.316 µM, first compound 10 µM): 23.5%
viability, T/C [13]: 14.7%
viability, T/C [14]: 10.3%
viability, T/C [15]: 13.1%
viability, T/C [16]: 11.6%
viability, T/C (second compound 1 µM, first compound 3.16 µM): 17.1%
viability, T/C (second compound 1 µM, first compound 10 µM): 15.2%
viability, T/C [17]: 9.36%
viability, T/C [18]: 13.4%
viability, T/C [19]: 13.2%
viability, T/C [20]: 14%
viability, T/C (second compound 3.16 µM, first compound 3.16 µM): 17.8%
viability, T/C (second compound 3.16 µM, first compound 10 µM): 17.2%
viability, T/C [21]: 13.1%
viability, T/C [22]: 12%
viability, T/C [23]: 13.8%
viability, T/C [24]: 13.7%
viability, T/C (second compound 10 µM, first compound 3.16 µM): 14.8%
viability, T/C (second compound 10 µM, first compound 10 µM): 21.3%
